Common to all, as to experiment: relative viability (nuclei count vs DMSO), 5 days (fraction); higher = more cells survive
Compound in assay [1]: CN1C=C(C2=CC=CC=C21)/C=C\3/C4=C(C=CC=N4)NC3=O + Nc1nc2[nH]cc(CCc3ccc(C(=O)N[C@@H](CCC(=O)O)C(=O)O)cc3)c2c(=O)[nH]1 [Pemetrexed] (partner 0.2 µM)
The procedure, abridged:
(§1)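 Relative viability divides the nuclei count in treated wells by that in vehicle wells. Lung cancer cell lines were seeded in 1536-well plates, dosed by pin tool the next day, and fixed and stained after 5 days in one step with final 0.05% Triton X-100, 1% formaldehyde and 1 ug/ml Hoechst. Dosing was a single drug or a fixed anchor-drug dose plus five library-drug doses (not always all listed) in √10 steps, and values are medians of duplicate plates imaged at 4×.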

Compound in the assay “Trametinib + Foretinib”: CC(=O)Nc1cccc(-n2c(=O)n(C3CC3)c(=O)c3c(Nc4ccc(I)cc4F)n(C)c(=O)c(C)c32)c1 [Trametinib] + COc1cc2c(Oc3ccc(NC(=O)C4(C(=O)Nc5ccc(F)cc5)CC4)cc3F)ccnc2cc1OCCCN1CCOCC1 [Foretinib] (partner 0.25 µM)
Summed up: as §1

Compound in assay [2]: CN1C=C(C2=CC=CC=C21)/C=C\3/C4=C(C=CC=N4)NC3=O + C[C@@H](Oc1cc(-c2cnn(C3CCNCC3)c2)cnc1N)c1c(Cl)ccc(F)c1Cl [Crizotinib] (partner 1 µM)
Summed up:
as §1

Compound in the assay “Trametinib + Vorinostat”: CC(=O)Nc1cccc(-n2c(=O)n(C3CC3)c(=O)c3c(Nc4ccc(I)cc4F)n(C)c(=O)c(C)c32)c1 [Trametinib] + O=C(CCCCCCC(=O)Nc1ccccc1)NO [Vorinostat] (partner 1 µM)
Summed up: as §1

On to UMC-11, for which the relative viability in assay [1] (first compound 0.02 µM) was 0.655; in assay [1] (first compound 0.06325 µM), 0.744; in assay [1] (first compound 0.2 µM), 0.801; in assay [1] (first compound 0.6325 µM), 0.857; in assay [1] (first compound 2 µM) it was 0.936; in the assay with Trametinib + Foretinib (first compound 0.0025 µM) it was 1. Moreover, the relative viability with Trametinib + Foretinib (first compound 0.007906 µM) came to 1.03; with Trametinib + Foretinib (first compound 0.025 µM), 0.997; with Trametinib + Foretinib (first compound 0.07906 µM), 1.06; with Trametinib + Foretinib (first compound 0.25 µM), 1.03; in assay [2] (first compound 0.02 µM) it was 0.448; in assay [2] (first compound 0.06325 µM), 0.543. For the same cell line, the relative viability in assay [2] (first compound 0.2 µM) is 0.578; in assay [2] (first compound 0.6325 µM) it was 0.855; in assay [2] (first compound 2 µM) it was 0.786; with Trametinib + Vorinostat (first compound 0.0025 µM), 0.327; with Trametinib + Vorinostat (first compound 0.007906 µM) it was 0.352; with Trametinib + Vorinostat (first compound 0.07906 µM), 0.313. Further, the relative viability in the assay with Trametinib + Vorinostat (first compound 0.25 µM) amounted to 0.294.

(Values after the supplement of paper PMC10307832.)
